Experimental data as given in ChEMBL document CHEMBL3885881, “DrugMatrix”.

Organism: Rattus norvegicus
Experiment: DrugMatrix - Regimen: Daily Repeat
Type: toxicity, organism-based, Sprague-Dawley
Design: regimen Daily Repeat, gender Male, age 6-8 weeks
Settings: in vivo, po, route oral GAVAGE, vehicle 100 % WATER; for ABSOLUTE BASOPHIL / ABSOLUTE EOSINOPHIL / ABSOLUTE LYMPHOCYTE / ABSOLUTE MONOCYTE / ABSOLUTE SEGMENTED NEUTROPHIL / BASOPHIL / EOSINOPHIL / ERYTHROCYTE COUNT / HEMATOCRIT / HEMOGLOBIN / LEUKOCYTE COUNT / LYMPHOCYTE / MEAN CORPUSCULAR HEMOGLOBIN / MEAN CORPUSCULAR HEMOGLOBIN CONCENTRATION / MEAN CORPUSCULAR VOLUME / MONOCYTE / NEUTROPHIL / NUCLEATED RED BLOOD CELLS / PLATELET COUNT: tissue Blood; for ALANINE AMINOTRANSFERASE / ALBUMIN / ALKALINE PHOSPHATASE / ASPARTATE AMINOTRANSFERASE / BLOOD UREA NITROGEN / CARBON DIOXIDE / CHLORIDE / CHOLESTEROL / CREATINE PHOSPHOKINASE / CREATININE / GLUCOSE / LACTATE DEHYDROGENASE / LIPASE / PHOSPHORUS / POTASSIUM / SODIUM / TOTAL BILIRUBIN / TOTAL PROTEIN / URIC ACID: tissue Plasma
[1] = 0 mg/kg, 72 h, dose level Control, time 3 day
[2] = 0 mg/kg, 120 h, dose level Control, time 5 day
[3] = 120 mg/kg, 72 h, dose level Low, time 3 day

SMILES: Nc1ccc(S(=O)(=O)Nc2ccnn2-c2ccccc2)cc1 [SULFAPHENAZOLE]
- ABSOLUTE BASOPHIL [1]: 0 CELLS/uL
- ABSOLUTE EOSINOPHIL [1]: 20.17 CELLS/uL
- ABSOLUTE LYMPHOCYTE [1]: 12371.67 CELLS/uL
- ABSOLUTE MONOCYTE [1]: 166 CELLS/uL
- ABSOLUTE SEGMENTED NEUTROPHIL [1]: 1292.17 CELLS/uL
- BASOPHIL [1]: 0%
- EOSINOPHIL [1]: 0.17%
- ERYTHROCYTE COUNT [1]: 5.46 x10E6/uL
- HEMATOCRIT [1]: 34.38%
- HEMOGLOBIN [1]: 13.32 G/DL
- LEUKOCYTE COUNT [1]: 13.85 x10E3/uL
- LYMPHOCYTE [1]: 88.5%
- MEAN CORPUSCULAR HEMOGLOBIN [1]: 24.42 pg
- MEAN CORPUSCULAR HEMOGLOBIN CONCENTRATION [1]: 38.7 G/DL
- MEAN CORPUSCULAR VOLUME [1]: 63.07 fL
- MONOCYTE [1]: 1.17%
- NEUTROPHIL [1]: 10.17%
- NUCLEATED RED BLOOD CELLS [1]: 0.17 /100WBC
- PLATELET COUNT [1]: 1193.5 x10E3/uL
- ALANINE AMINOTRANSFERASE [1]: 54.5 u/L
- ALBUMIN [1]: 4.02 G/DL
- ALKALINE PHOSPHATASE [1]: 346.5 u/L
- ASPARTATE AMINOTRANSFERASE [1]: 103.17 u/L
- BLOOD UREA NITROGEN [1]: 16.5 mg/dL
- CARBON DIOXIDE [1]: 29.83 mmol/L
- CHLORIDE [1]: 99.5 MEQ/L
- CHOLESTEROL [1]: 72.5 mg/dL
- CREATINE PHOSPHOKINASE [1]: 532.5 u/L
- CREATININE [1]: 0.18 mg/dL
- GLUCOSE [1]: 168.5 mg/dL
- LACTATE DEHYDROGENASE [1]: 536.5 u/L
- LIPASE [1]: 11.17 u/L
- PHOSPHORUS [1]: 11.48 mg/dL
- POTASSIUM [1]: 5.95 MEQ/L
- SODIUM [1]: 140.5 MEQ/L
- TOTAL BILIRUBIN [1]: 0.18 mg/dL
- TOTAL PROTEIN [1]: 5.77 G/DL
- URIC ACID [1]: 1.42 mg/dL
- ABSOLUTE BASOPHIL [2]: 0 CELLS/uL
- ABSOLUTE EOSINOPHIL [2]: 22.83 CELLS/uL
- ABSOLUTE LYMPHOCYTE [2]: 12202.83 CELLS/uL
- ABSOLUTE MONOCYTE [2]: 158 CELLS/uL
- ABSOLUTE SEGMENTED NEUTROPHIL [2]: 1283 CELLS/uL
- BASOPHIL [2]: 0%
- EOSINOPHIL [2]: 0.17%
- ERYTHROCYTE COUNT [2]: 5.88 x10E6/uL
- HEMATOCRIT [2]: 36.62%
- HEMOGLOBIN [2]: 14.07 G/DL
- LEUKOCYTE COUNT [2]: 13.67 x10E3/uL
- LYMPHOCYTE [2]: 89.5%
- MEAN CORPUSCULAR HEMOGLOBIN [2]: 23.95 pg
- MEAN CORPUSCULAR HEMOGLOBIN CONCENTRATION [2]: 38.43 G/DL
- MEAN CORPUSCULAR VOLUME [2]: 62.28 fL
- MONOCYTE [2]: 1.17%
- NEUTROPHIL [2]: 9.17%
- NUCLEATED RED BLOOD CELLS [2]: 0.17 /100WBC
- PLATELET COUNT [2]: 1198 x10E3/uL
- ALANINE AMINOTRANSFERASE [2]: 51 u/L
- ALBUMIN [2]: 4.3 G/DL
- ALKALINE PHOSPHATASE [2]: 343 u/L
- ASPARTATE AMINOTRANSFERASE [2]: 89.83 u/L
- BLOOD UREA NITROGEN [2]: 17.67 mg/dL
- CARBON DIOXIDE [2]: 27.17 mmol/L
- CHLORIDE [2]: 98.33 MEQ/L
- CHOLESTEROL [2]: 82.5 mg/dL
- CREATINE PHOSPHOKINASE [2]: 533.33 u/L
- CREATININE [2]: 0.18 mg/dL
- GLUCOSE [2]: 152.67 mg/dL
- LACTATE DEHYDROGENASE [2]: 220.33 u/L
- LIPASE [2]: 11.5 u/L
- PHOSPHORUS [2]: 11.25 mg/dL
- POTASSIUM [2]: 6.29 MEQ/L
- SODIUM [2]: 140.53 MEQ/L
- TOTAL BILIRUBIN [2]: 0.22 mg/dL
- TOTAL PROTEIN [2]: 6.12 G/DL
- URIC ACID [2]: 1.42 mg/dL
- ABSOLUTE BASOPHIL [3]: 0 CELLS/uL
- ABSOLUTE EOSINOPHIL [3]: 0 CELLS/uL
- ABSOLUTE LYMPHOCYTE [3]: 13809.67 CELLS/uL
- ABSOLUTE MONOCYTE [3]: 111 CELLS/uL
- ABSOLUTE SEGMENTED NEUTROPHIL [3]: 1579.33 CELLS/uL
- BASOPHIL [3]: 0%
- EOSINOPHIL [3]: 0%
- ERYTHROCYTE COUNT [3]: 5.26 x10E6/uL
- HEMATOCRIT [3]: 32.3%
- HEMOGLOBIN [3]: 13 G/DL
- LEUKOCYTE COUNT [3]: 15.5 x10E3/uL
- LYMPHOCYTE [3]: 88.67%
- MEAN CORPUSCULAR HEMOGLOBIN [3]: 24.77 pg
- MEAN CORPUSCULAR HEMOGLOBIN CONCENTRATION [3]: 40.33 G/DL
- MEAN CORPUSCULAR VOLUME [3]: 61.43 fL
- MONOCYTE [3]: 0.67%
- NEUTROPHIL [3]: 10.67%
- NUCLEATED RED BLOOD CELLS [3]: 0 /100WBC
- PLATELET COUNT [3]: 1150 x10E3/uL
- ALANINE AMINOTRANSFERASE [3]: 66 u/L
- ALBUMIN [3]: 3.9 G/DL
- ALKALINE PHOSPHATASE [3]: 348.67 u/L
- ASPARTATE AMINOTRANSFERASE [3]: 94.33 u/L
- BLOOD UREA NITROGEN [3]: 14 mg/dL
- CARBON DIOXIDE [3]: 29.33 mmol/L
- CHLORIDE [3]: 97.67 MEQ/L
- CHOLESTEROL [3]: 74.67 mg/dL
- CREATINE PHOSPHOKINASE [3]: 287.67 u/L
- CREATININE [3]: 0.15 mg/dL
- GLUCOSE [3]: 149.33 mg/dL
- LACTATE DEHYDROGENASE [3]: 195.67 u/L
- LIPASE [3]: 10 u/L
- PHOSPHORUS [3]: 11.53 mg/dL
- POTASSIUM [3]: 6.01 MEQ/L
- SODIUM [3]: 140.83 MEQ/L
- TOTAL BILIRUBIN [3]: 0.17 mg/dL
- TOTAL PROTEIN [3]: 5.63 G/DL
- URIC ACID [3]: 1.33 mg/dL
